Source: patent US4863969A, “Treatment of premalignant lesions and certain malignant tumors” (priority 1985, dated 1989)

Experiments:
[1] = test system: squamous metaplasia of the vaginal epithelium; test: Antimetaplastic activity in ovarectomized rats (hormone-induced squamous metaplasia, vaginal smear); assay type: in vivo, female Holtzmann rats
Method: (C) The antimetaplastic activity of compound Ia was determined in rats according to the following method. Female Holtzmann rats weighing approximately 100 g were ovarectomized under Thiogenal narcosis after an adaptation period of 8 days and were used in the experiment after a further 14 days. In each case two animals were placed in a cage and had free access to feed which contained approximately 2000 IU of analytically determined vitamin A. Prior to the oral administration of the test compound the animals were treated subcutaneously each day for 6 successive days with the hormone mixture of 1 μg of estradiol benzoate and 250 μg of testosterone propionate dissolved in 0.1 ml of sesame oil. The parenteral hormone administration led to the formation of a clear granular stage in the vaginal smear, i.e. a squamous metaplasia. 2 days after the oral administration of the test substance the result of the reaction was again read off on the vaginal epithelium. The area method according to Behrens and Karber was employed to calculate the average effective dosages.

[2] = Rydell et al. 1982; Kistler 1981; Loeliger et al. 1980; cited from earlier work
[3] = Tolerability and toxicity; assay type: in vivo; settings: given intraperitoneally and given orally

| Structure (SMILES) | Relative activity (antimetaplastic) ([1]; all-trans vitamin A acid = 100%) [%] | Antimetaplastic effect (average effective / protective dosage) ([1]; oral, read 2 days after administration, area method of Behrens and Karber) [µg] | Biological activity in preliminary screening tests [2] | Toxicity [3] |
| --- | --- | --- | --- | --- |
| CC1=C(/C=C/C(C)=C/C=C/C(C)=C/C(=O)O)C(C)(C)CCC1 [all-trans vitamin A acid, reference compound] | 100 | 35.7 | – | – |
| CC(=Cc1ccccc1)c1ccc2c(c1)C(C)(C)CCC2(C)C [compound of formula I, 1,2,3,4-tetrahydro-1,1,4,4-tetramethyl-6-(alpha-methylstyryl)naphthalene] | – | – | biologically inactive | relatively non-toxic |
